Among the data in US20230056205A1, “SUBSTITUTED 4,6-DIHYDROSPIRO[[1,2,3]TRIAZOLO[4,5-B]PYRIDINE-7,3'-INDOLINE]-2',5(3H)-DIONE ANALOGUES” (The Board of Regents of The University of Texas System, priority 2019, published 2023) are EC50 and CC50 values, retold here.

The subject of one data set is DENV-1 replicon. As to the kind of experiment: Luciferase reporter replicon-based screening, DENV-1. The format is cell-based, DENV-1 (strain WestPac). The note with it: Dengue virus, DENV1, Huh-7, 48 h, read-out: EC50 DENV-1. The method, then:
(§1) Luciferase Reporter Replicon-Based Screening. Huh7 cells containing a luciferase reporter replicon of DENV-1 (strain WestPac), DENV-2 (New Guinea C strain, NGC), DENV-3 (strain D3MY05-34640) and DENV-4 (strain D4MY01-22713) were used in this study. The replicon cells containing the Renilla luciferase and neomycin-resistance genes were generated using a similar strategy as described previously.^55 Briefly, Huh7 DENV-1 to -4 replicon cells were seeded at a density of 10k per well in a 96-well microplate. After incubation at 37° C. with 5% CO2 overnight, the cells were treated with 2-fold serial dilutions of compounds. Experiments were performed in duplicates. After 48 h of incubation, luciferase activities were measured using the EnduRen live-cell substrate (Promega) by following the manufacturer’s instructions. The dose-dependent curve was plotted and EC50 values were calculated using four parameter logistic regression in GraphPad software Prism 8.0.

Another data set has as its system DENV-2 replicon. As to the kind of experiment: Luciferase reporter replicon-based screening, DENV-2. Type of data set: cell-based, DENV-2 (New Guinea C strain, NGC). The method, then: as §1
In the next data set the test system is DENV-3 replicon. As to the kind of experiment: Luciferase reporter replicon-based screening, DENV-3. Type of data set: cell-based, DENV-3 (strain D3MY05-34640). The method, then:
as §1
(In general: A reporter such as luciferase makes a cellular process visible.)

The next data set relates to DENV-4 replicon. The data set is described as follows: Luciferase reporter replicon-based screening, DENV-4. The note with it: Dengue virus, DENV4, Huh-7, 48 h, read-out: EC50 DENV-4. Type of data set: cell-based, DENV-4 (strain D4MY01-22713). The method, then: as §1
Data set [1] in a line: Cytotoxicity assay (CellTiter-Glo). The conditions noted are these: human, Huh7 cells stably expressing DENV-2 replicon. Type of data set: cell-based. The method, then: Cytotoxicity Assay. Huh7 cells or Huh7 replicon cells were seeded in a 96-well plate. After incubation at 37° C. with 5% CO2 overnight, the cells were treated with 2-fold serial dilutions of compounds. Experiments were performed in duplicates. After 48 h of incubation, cell viability was measured by adding the CellTiter-Glo reagent (Promega) to each well. The cell viability in 0.45% DMSO-treatment groups was treated at 100%. The cell viability in compound-treated wells was normalized to that of DMSO-treated wells. CC50 values were calculated using four parameter logistic regression in GraphPad software Prism 8.0.
On the technique in general: ATP-based viability assays read luminescence as a measure of living cells.

Where [2] appears, read: Dengue virus, DENV2, Huh-7, 48 h, read-out: EC50 DENV-2, Huh7 cells stably expressing DENV-2 replicon, 48 h.
The mark [3] stands for this setting: Dengue virus, DENV3, Huh-7, 48 h, read-out: EC50 DENV-3, Huh7 cells stably expressing DENV-3 replicon, 48 h.

Like-named read-outs stand apart in the source and are kept apart here.

As usually defined, the EC50 is the concentration giving half of the maximal effect. Broadly, the CC50 is the concentration giving 50% cytotoxicity. Higher therefore signals better tolerance by the cells. On to `CC(C)N1C(=O)[C@]2(CC(=O)Nc3c2nnn3[C@@H](C)c2ccc(Cl)cc2)c2cc(Cl)ccc21` [Compound 13, (R)-5'-Chloro-3-((S)-1-(4-chlorophenyl)ethyl)-1'-isopropyl-4,6-dihydrospiro[[1,2,3]triazolo[4,5-b]pyridine-7,3ʹ-indoline]-2',5(3H)-dione], for which the EC50 in the data set on DENV-1 replicon is 5700 nM; in the data set on DENV-2 replicon (setting [2]), 23 nM; in the data set on DENV-3 replicon (setting [3]) it was 9 nM; in the data set with DENV-4 replicon it was > 5000 nM. In data set [1], the cytotoxic concentration (CC50) at 48 h is > 10000 nM.

In the case of `CC(C)CN1C(=O)[C@]2(CC(=O)Nc3c2nnn3[C@@H](C)c2ccc(Cl)cc2)c2cc(Cl)ccc21` [Compound 14, (R)-5'-Chloro-3-((S)-1-(4-chlorophenyl)ethyl)-1'-isobutyl-4,6-dihydrospiro[[1,2,3]triazolo[4,5-b]pyridine-7,3'-indoline]-2',5(3H)-dione], the 50% effective concentration (EC50) with DENV-1 replicon is 1300 nM; in the data set on DENV-2 replicon (setting [2]) it was 150 nM; in the data set on DENV-3 replicon (setting [3]), 20 nM; in the data set on DENV-4 replicon it was > 5000 nM. Moreover, the CC50 at 48 h in data set [1] was > 10000 nM.

On to `C[C@@H](c1ccc(Cl)cc1)n1nnc2c1NC(=O)C[C@]21C(=O)N(CCC(C)(C)C)c2ccc(Cl)cc21` [Compound 16, (R)-5ʹ-Chloro-3-((S)-1-(4-chlorophenyl)ethyl)-1ʹ-(3,3-dimethylbutyl)-4,6-dihydrospiro[[1,2,3]triazolo[4,5-b]pyridine-7,3ʹ-indoline]-2ʹ,5(3H)-dione], for which the EC50 with DENV-1 replicon is 1100 nM; in the data set with DENV-2 replicon (setting [2]) it was 870 nM; in the data set with DENV-3 replicon (setting [3]) it was 82 nM; in the data set on DENV-4 replicon it was 3900 nM. In data set [1], the CC50 at 48 h was > 10000 nM.

In the case of `C[C@@H](c1ccc(Cl)cc1)n1nnc2c1NC(=O)C[C@]21C(=O)N(CC2CC2)c2ccc(Cl)cc21` [Compound 17, (R)-5'-Chloro-3-((S)-1-(4-chlorophenyl)ethyl)-1'-(cyclopropylmethyl)-4,6-dihydrospiro[[1,2,3]triazolo[4,5-b]pyridine-7,3'-indoline]-2',5(3H)-dione], the EC50 in the data set with DENV-1 replicon is 3100 nM; with DENV-2 replicon (setting [2]), 110 nM; in the data set with DENV-3 replicon (setting [3]), 17 nM; with DENV-4 replicon, > 5000 nM. Besides, in data set [1], the 50% cytotoxic concentration (CC50) at 48 h was > 10000 nM.

`C=CCN1C(=O)[C@]2(CC(=O)Nc3c2nnn3[C@@H](C)c2ccc(Cl)cc2)c2cc(Cl)ccc21` [Compound 18, (R)-1'-Allyl-5'-chloro-3-((S)-1-(4-chlorophenyl)ethyl)-4,6-dihydrospiro[[1,2,3]triazolo[4,5-b]pyridine-7,3ʹ-indoline]-2',5(3H)-dione]: the half-maximal effective concentration (EC50) in the data set on DENV-1 replicon was 2100 nM; with DENV-2 replicon (setting [2]) it was 38 nM; with DENV-3 replicon (setting [3]), 5 nM; in the data set with DENV-4 replicon it was > 5000 nM. Also, in data set [1], the CC50 at 48 h was > 10000 nM.

Consider `C#CCN1C(=O)[C@]2(CC(=O)Nc3c2nnn3[C@@H](C)c2ccc(Cl)cc2)c2cc(Cl)ccc21` [Compound 19, (R)-5ʹ-Chloro-3-((S)-1-(4-chlorophenyl)ethyl)-1ʹ-(prop-2-yn-1-yl)-4,6-dihydrospiro [[1,2,3]triazolo[4,5-b]pyridine-7,3ʹ-indoline]-2ʹ,5(3H)-dione], for which the EC50 in the data set with DENV-1 replicon was > 5000 nM; with DENV-2 replicon (setting [2]), 69 nM; in the data set on DENV-3 replicon (setting [3]) it was 3 nM; with DENV-4 replicon, > 5000 nM. Besides, in data set [1], the CC50 at 48 h was > 10000 nM.

Take `CC#CCN1C(=O)[C@]2(CC(=O)Nc3c2nnn3[C@@H](C)c2ccc(Cl)cc2)c2cc(Cl)ccc21` [Compound 20, (R)-1'-(But-2-yn-1-yl)-5'-chloro-3-((S)-1-(4-chlorophenyl)ethyl)-4,6-dihydrospiro[[1,2,3]triazolo[4,5-b]pyridine-7,3'-indoline]-2',5(3H)-dione]: the concentration giving a half-maximal response (EC50) is > 5000 nM with DENV-1 replicon, 63 nM with DENV-2 replicon (setting [2]), 20 nM in the data set with DENV-3 replicon (setting [3]) and > 5000 nM in the data set with DENV-4 replicon. For the same compound, in data set [1], the CC50 at 48 h is > 10000 nM.

Consider `CC(C)N1C(=O)C[C@]2(C(=O)Nc3ccc(Cl)cc32)c2nnn([C@@H](C)c3ccc(Cl)cc3)c21` [Compound 21, (R)-5'-Chloro-3-((S)-1-(4-chlorophenyl)ethyl)-4-isopropyl-4,6-dihydrospiro[[1,2,3]triazolo[4,5-b]pyridine-7,3'-indoline]-2',5(3H)-dione], for which the EC50 worked out at 2100 nM with DENV-1 replicon, 860 nM in the data set on DENV-2 replicon (setting [2]), 310 nM in the data set on DENV-3 replicon (setting [3]) and 4400 nM in the data set with DENV-4 replicon. The CC50 at 48 h in data set [1] was > 10000 nM.

On to `CC(C)N1C(=O)[C@]2(CC(=O)N(C(C)C)c3c2nnn3[C@@H](C)c2ccc(Cl)cc2)c2cc(Cl)ccc21` [Compound 22, (R)-5'-Chloro-3-((S)-1-(4-chlorophenyl)ethyl)-1',4-diisopropyl-4,6-dihydrospiro[[1,2,3]triazolo[4,5-b]pyridine-7,3'-indoline]-2ʹ,5(3H)-dione], for which the concentration for a half-maximal effect (EC50) in the data set on DENV-1 replicon is 3800 nM; with DENV-2 replicon (setting [2]), > 10000 nM; with DENV-3 replicon (setting [3]), 1500 nM; in the data set on DENV-4 replicon, 3000 nM. In data set [1], the CC50 at 48 h is > 10000 nM.

`C[C@@H](c1ccc(Cl)cc1)n1nnc2c1N(C)C(=O)C(C)(C)[C@]21C(=O)N(C)c2ccc(Cl)cc21` [Compound 23, (S)-5'-Chloro-3-((S)-1-(4-chlorophenyl)ethyl)-1ʹ,4,6,6-tetramethyl-4,6-dihydrospiro[[1,2,3]triazolo[4,5-b]pyridine-7,3ʹ-indoline]-2ʹ,5(3H)-dione]: the EC50 with DENV-1 replicon, in the data set on DENV-2 replicon (setting [2]), with DENV-3 replicon (setting [3]) and with DENV-4 replicon was > 5000 nM in each case. Besides, in data set [1], the CC50 at 48 h was > 10000 nM.

In the case of `C[C@@H](c1ccc(Cl)cc1)n1nnc2c1NC(=O)C[C@]21C(=O)N(Cc2ccccc2)c2ccc(Cl)cc21` [Compound 24, (R)-1ʹ-Benzyl-5ʹ-chloro-3-((S)-1-(4-chlorophenyl)ethyl)-4,6-dihydrospiro[[1,2,3]triazolo[4,5-b]pyridine-7,3ʹ-indoline]-2ʹ,5(3H)-dione], the 50% effective concentration (EC50) with DENV-1 replicon was 2000 nM; in the data set with DENV-2 replicon (setting [2]), 140 to 290 nM; with DENV-2 replicon (read-out: EC50 DENV-2, Huh7 cells stably expressing DENV-2 replicon, 48 h), 150 nM; in the data set with DENV-3 replicon (setting [3]), 20 to 51 nM; in the data set on DENV-3 replicon (read-out: EC50 DENV-3, Huh7 cells stably expressing DENV-3 replicon, 48 h), 20 nM; with DENV-4 replicon, > 5000 nM. Moreover, the 50% cytotoxic concentration (CC50) at 48 h in data set [1] is > 10000 nM.

On to `C[C@@H](c1ccc(Cl)cc1)n1nnc2c1NC(=O)C[C@]21C(=O)N(Cc2ccc(Cl)cc2)c2ccc(Cl)cc21` [Compound 27, (R)-5'-Chloro-1'-(4-chlorobenzyl)-3-((S)-1-(4-chlorophenyl)ethyl)-4,6-dihydrospiro[[1,2,3]triazolo[4,5-b]pyridine-7,3'-indoline]-2',5(3H)-dione], for which the 50% effective concentration (EC50) stood at 2200 nM with DENV-1 replicon, 3300 nM with DENV-2 replicon (setting [2]), 200 nM in the data set on DENV-3 replicon (setting [3]) and 6500 nM in the data set on DENV-4 replicon. Moreover, in data set [1], the CC50 at 48 h was > 10000 nM.

Regarding `C[C@@H](c1ccc(Cl)cc1)n1nnc2c1NC(=O)C[C@]21C(=O)N(Cc2ccc(Cl)c(F)c2)c2ccc(Cl)cc21` [Compound 28, (R)-5'-Chloro-1'-(4-chloro-3-fluorobenzyl)-3-((S)-1-(4-chlorophenyl)ethyl)-4,6-dihydrospiro[[1,2,3]triazolo[4,5-b]pyridine-7,3'-indoline]-2',5(3H)-dione], the EC50 in the data set on DENV-1 replicon was determined as 1500 nM; with DENV-2 replicon (setting [2]) it was 4000 nM; with DENV-3 replicon (setting [3]) it was 290 nM; in the data set with DENV-4 replicon it was 5100 nM. In addition, the cytotoxic concentration (CC50) at 48 h in data set [1] was > 10000 nM.
